Results reported in PubChem BioAssay (NCI).
Values joined by “and” are separate entries in the source; they are usually repeats but may differ in a detail not shown here. Identical values can stand only once.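 Grown in 96-well plates, cells were treated for 48 hours with each compound at five concentrations. Insufficient inhibition: endpoint recorded as highest concentration tested. TGI denotes the concentration required for complete inhibition of growth.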

Tested on: MDA-MB-435
Assay: NCI tumour cell line growth inhibition, 48 h

SMILES | TGI
NNC(=O)CSc1nc2ccccc2c(=O)n1N | > 100 µM
Cc1cc(S(=O)(=O)Nc2nc3cc(-c4ccc(Cl)cc4)sc3c(=O)n2N)c(S)cc1Cl | > 100 µM
C=C([C@@]1(O)C[C@H]2[C@H](CCC2(OC)OC)[C@@H]2c3ccccc3O[C@@H]21)[Si](C)(C)C | > 100 µM
COc1ccc2c(c1)CCN1CCc3ccccc3CC21 (configuration not stated) | > 100 µM
CN1COCc2c1ccc1cc3ccc4c(c3nc21)COCN4S(C)(=O)=O | > 100 µM
Oc1cccc(-c2nc3cc(F)ccc3s2)c1 | 58.5 µM
CN(C)c1ccc(C2SCC(=O)N2c2ccc(Oc3ccc(Cl)cc3)c(Cl)c2)cc1 (configuration not stated) | 84 µM
CN(C)CCOC1(Cc2ccc(F)cc2)CCC(C(C)(C)C)CC1 (configuration not stated) | 15 µM and 12.3 µM
Nc1ccc(C(=O)N2CCC[C@H]2CO)c(N)c1 | > 100 µM
CC1=C(CO)C(=O)O[C@@H]([C@@H](CO)[C@H]2CCC3C4C[C@@H](O)[C@@]5(O)CC=CC(=O)[C@]5(C)C4CC[C@@]32C)C1 (some centres not stated) | > 100 µM
CSc1cnc2ccccc2c1SC1CN(Cc2ccccc2)c2ccccc2C1=O (configuration not stated) | > 100 µM
C=C(Cl)C(C)(Cl)CCC(Br)C(C)(C)Cl (configuration not stated) | 39.9 µM
CCNC(=O)Nc1cccc(NC(=O)NCC)n1 | > 100 µM

Tested on: MOLT-4 leukemia
Assay: NCI tumour cell line growth inhibition, 48 h

SMILES | TGI
CC12CCC(O)CC1CCC1C2CCC2(C)C(C(=O)CC(O)C(F)(F)F)CCC12 (configuration not stated) | 43.6 µM
CC(C)(C)OC(=O)NCCCNC1(c2cc3ccccc3s2)CCCCC1 | 28.4 µM
COc1ccc(N2C(=O)CSC2c2c[nH]c3ccccc23)cc1 (configuration not stated) | > 100 µM
C=CCOc1ccc(C2(O)c3ccccc3C3=NCCCN32)cc1 (configuration not stated) | > 100 µM
CCC/C(Cl)=N\OC(=O)Nc1ccc(OC(F)(F)F)cc1 | 4.59 µM
C[N+]12CCCCC1C(CN1C(=O)Cc3c4ccccc4c(c4ccccc34)CC1=O)CCC2 (configuration not stated) | > 100 µM
CC(=O)O[C@H]1CC[C@@]2(C)C(=CC[C@H]3[C@@H]4C[C@H](N5CCOCC5)[C@H](OC(C)=O)[C@@]4(C)CC[C@@H]32)C1 | > 100 µM
CCC1(C)C=Cc2c(cc(O)c3c(=O)c4ccccc4n(C)c23)O1 (configuration not stated) | > 10 µM
CC(C)(Cl)C(Br)CCC(=CCCl)CBr (mixture of isomers) | > 21.2 µM
Nc1[nH]nc2nc3ccc(C(F)(F)F)cc3nc12 | > 100 µM
CCN1CCC(O)(/C=C/c2ccc(C)cc2C)C(C(=O)/C=C/c2ccc(C)cc2C)C1 (configuration not stated) | 5.08 µM
O=[N+]([O-])/C(C(Cl)=C(Cl)Cl)=C(\N1CCCCC1)n1cncn1 | > 50.5 µM
S=C(Nc1ccc2c(c1)oc1ccccc12)c1cccnc1 | > 100 µM
O=C1c2cccnc2-c2nccc3c2c1nc1cc(Br)ccc13 | 0.854 µM
NC(CCC(=O)NC(CSCC1C(=O)Nc2ccccc21)C(=O)NCC(=O)O)C(=O)O (configuration not stated) | 12.8 µM
NNC(=O)CSc1nc2ccccc2c(=O)n1N | > 100 µM
Cc1cc(S(=O)(=O)Nc2nc3cc(-c4ccc(Cl)cc4)sc3c(=O)n2N)c(S)cc1Cl | 55.3 µM
C=C([C@@]1(O)C[C@H]2[C@H](CCC2(OC)OC)[C@@H]2c3ccccc3O[C@@H]21)[Si](C)(C)C | > 100 µM
COc1ccc2c(c1)CCN1CCc3ccccc3CC21 (configuration not stated) | > 100 µM
CN1COCc2c1ccc1cc3ccc4c(c3nc21)COCN4S(C)(=O)=O | > 100 µM
Oc1cccc(-c2nc3cc(F)ccc3s2)c1 | 59 µM
CN(C)c1ccc(C2SCC(=O)N2c2ccc(Oc3ccc(Cl)cc3)c(Cl)c2)cc1 (configuration not stated) | > 100 µM
CN(C)CCOC1(Cc2ccc(F)cc2)CCC(C(C)(C)C)CC1 (configuration not stated) | 8.88 µM and 12.3 µM
Nc1ccc(C(=O)N2CCC[C@H]2CO)c(N)c1 | > 100 µM
CC1=C(CO)C(=O)O[C@@H]([C@@H](CO)[C@H]2CCC3C4C[C@@H](O)[C@@]5(O)CC=CC(=O)[C@]5(C)C4CC[C@@]32C)C1 (some centres not stated) | > 100 µM
CSc1cnc2ccccc2c1SC1CN(Cc2ccccc2)c2ccccc2C1=O (configuration not stated) | > 100 µM
C=C(Cl)C(C)(Cl)CCC(Br)C(C)(C)Cl (configuration not stated) | > 100 µM
CCNC(=O)Nc1cccc(NC(=O)NCC)n1 | > 100 µM

Tested on: NCI-H460 lung
Assay: NCI tumour cell line growth inhibition, 48 h

SMILES | TGI
CC12CCC(O)CC1CCC1C2CCC2(C)C(C(=O)CC(O)C(F)(F)F)CCC12 (configuration not stated) | > 100 µM
CC(C)(C)OC(=O)NCCCNC1(c2cc3ccccc3s2)CCCCC1 | 30.5 µM
COc1ccc(N2C(=O)CSC2c2c[nH]c3ccccc23)cc1 (configuration not stated) | > 100 µM
C=CCOc1ccc(C2(O)c3ccccc3C3=NCCCN32)cc1 (configuration not stated) | > 100 µM
CCC/C(Cl)=N\OC(=O)Nc1ccc(OC(F)(F)F)cc1 | 40.1 µM
C[N+]12CCCCC1C(CN1C(=O)Cc3c4ccccc4c(c4ccccc34)CC1=O)CCC2 (configuration not stated) | > 100 µM
CC(=O)O[C@H]1CC[C@@]2(C)C(=CC[C@H]3[C@@H]4C[C@H](N5CCOCC5)[C@H](OC(C)=O)[C@@]4(C)CC[C@@H]32)C1 | > 100 µM
CCC1(C)C=Cc2c(cc(O)c3c(=O)c4ccccc4n(C)c23)O1 (configuration not stated) | > 10 µM
CC(C)(Cl)C(Br)CCC(=CCCl)CBr (mixture of isomers) | 5.71 µM
Nc1[nH]nc2nc3ccc(C(F)(F)F)cc3nc12 | 52.9 µM
CCN1CCC(O)(/C=C/c2ccc(C)cc2C)C(C(=O)/C=C/c2ccc(C)cc2C)C1 (configuration not stated) | 3.32 µM
O=[N+]([O-])/C(C(Cl)=C(Cl)Cl)=C(\N1CCCCC1)n1cncn1 | 72.1 µM
S=C(Nc1ccc2c(c1)oc1ccccc12)c1cccnc1 | > 100 µM
O=C1c2cccnc2-c2nccc3c2c1nc1cc(Br)ccc13 | 0.304 µM
NC(CCC(=O)NC(CSCC1C(=O)Nc2ccccc21)C(=O)NCC(=O)O)C(=O)O (configuration not stated) | 37.2 µM
NNC(=O)CSc1nc2ccccc2c(=O)n1N | > 100 µM
Cc1cc(S(=O)(=O)Nc2nc3cc(-c4ccc(Cl)cc4)sc3c(=O)n2N)c(S)cc1Cl | > 100 µM
C=C([C@@]1(O)C[C@H]2[C@H](CCC2(OC)OC)[C@@H]2c3ccccc3O[C@@H]21)[Si](C)(C)C | > 100 µM
COc1ccc2c(c1)CCN1CCc3ccccc3CC21 (configuration not stated) | > 100 µM
CN1COCc2c1ccc1cc3ccc4c(c3nc21)COCN4S(C)(=O)=O | > 100 µM
Oc1cccc(-c2nc3cc(F)ccc3s2)c1 | 55.4 µM
CN(C)c1ccc(C2SCC(=O)N2c2ccc(Oc3ccc(Cl)cc3)c(Cl)c2)cc1 (configuration not stated) | 49.4 µM
CN(C)CCOC1(Cc2ccc(F)cc2)CCC(C(C)(C)C)CC1 (configuration not stated) | 11.1 µM and 7.09 µM
Nc1ccc(C(=O)N2CCC[C@H]2CO)c(N)c1 | > 100 µM
CSc1cnc2ccccc2c1SC1CN(Cc2ccccc2)c2ccccc2C1=O (configuration not stated) | > 100 µM
C=C(Cl)C(C)(Cl)CCC(Br)C(C)(C)Cl (configuration not stated) | 71.9 µM
CCNC(=O)Nc1cccc(NC(=O)NCC)n1 | > 100 µM

Tested on: NCI-H522 lung
Assay: NCI tumour cell line growth inhibition, 48 h

SMILES | TGI
CC12CCC(O)CC1CCC1C2CCC2(C)C(C(=O)CC(O)C(F)(F)F)CCC12 (configuration not stated) | > 100 µM
CC(C)(C)OC(=O)NCCCNC1(c2cc3ccccc3s2)CCCCC1 | 32 µM
COc1ccc(N2C(=O)CSC2c2c[nH]c3ccccc23)cc1 (configuration not stated) | 84.9 µM
C=CCOc1ccc(C2(O)c3ccccc3C3=NCCCN32)cc1 (configuration not stated) | > 100 µM
CCC/C(Cl)=N\OC(=O)Nc1ccc(OC(F)(F)F)cc1 | 2.39 µM
C[N+]12CCCCC1C(CN1C(=O)Cc3c4ccccc4c(c4ccccc34)CC1=O)CCC2 (configuration not stated) | > 100 µM
CC(=O)O[C@H]1CC[C@@]2(C)C(=CC[C@H]3[C@@H]4C[C@H](N5CCOCC5)[C@H](OC(C)=O)[C@@]4(C)CC[C@@H]32)C1 | > 100 µM
CCC1(C)C=Cc2c(cc(O)c3c(=O)c4ccccc4n(C)c23)O1 (configuration not stated) | > 10 µM
CC(C)(Cl)C(Br)CCC(=CCCl)CBr (mixture of isomers) | 2.24 µM
Nc1[nH]nc2nc3ccc(C(F)(F)F)cc3nc12 | 38.8 µM
CCN1CCC(O)(/C=C/c2ccc(C)cc2C)C(C(=O)/C=C/c2ccc(C)cc2C)C1 (configuration not stated) | 3.73 µM
O=[N+]([O-])/C(C(Cl)=C(Cl)Cl)=C(\N1CCCCC1)n1cncn1 | 31.6 µM
S=C(Nc1ccc2c(c1)oc1ccccc12)c1cccnc1 | 64 µM
O=C1c2cccnc2-c2nccc3c2c1nc1cc(Br)ccc13 | 0.29 µM
NC(CCC(=O)NC(CSCC1C(=O)Nc2ccccc21)C(=O)NCC(=O)O)C(=O)O (configuration not stated) | 2.8 µM
NNC(=O)CSc1nc2ccccc2c(=O)n1N | > 100 µM
Cc1cc(S(=O)(=O)Nc2nc3cc(-c4ccc(Cl)cc4)sc3c(=O)n2N)c(S)cc1Cl | > 100 µM
C=C([C@@]1(O)C[C@H]2[C@H](CCC2(OC)OC)[C@@H]2c3ccccc3O[C@@H]21)[Si](C)(C)C | > 100 µM
COc1ccc2c(c1)CCN1CCc3ccccc3CC21 (configuration not stated) | > 100 µM
CN1COCc2c1ccc1cc3ccc4c(c3nc21)COCN4S(C)(=O)=O | > 100 µM
Oc1cccc(-c2nc3cc(F)ccc3s2)c1 | 25.7 µM
CN(C)c1ccc(C2SCC(=O)N2c2ccc(Oc3ccc(Cl)cc3)c(Cl)c2)cc1 (configuration not stated) | 42.9 µM
CN(C)CCOC1(Cc2ccc(F)cc2)CCC(C(C)(C)C)CC1 (configuration not stated) | 14.2 µM and 23.5 µM
Nc1ccc(C(=O)N2CCC[C@H]2CO)c(N)c1 | > 100 µM
CC1=C(CO)C(=O)O[C@@H]([C@@H](CO)[C@H]2CCC3C4C[C@@H](O)[C@@]5(O)CC=CC(=O)[C@]5(C)C4CC[C@@]32C)C1 (some centres not stated) | > 100 µM
CSc1cnc2ccccc2c1SC1CN(Cc2ccccc2)c2ccccc2C1=O (configuration not stated) | > 100 µM
C=C(Cl)C(C)(Cl)CCC(Br)C(C)(C)Cl (configuration not stated) | 23.5 µM
CCNC(=O)Nc1cccc(NC(=O)NCC)n1 | > 100 µM

Tested on: OVCAR-4 ovarian
Assay: NCI tumour cell line growth inhibition, 48 h

SMILES | TGI [µM]
CC12CCC(O)CC1CCC1C2CCC2(C)C(C(=O)CC(O)C(F)(F)F)CCC12 (configuration not stated) | > 100
CC(C)(C)OC(=O)NCCCNC1(c2cc3ccccc3s2)CCCCC1 | 29.5
COc1ccc(N2C(=O)CSC2c2c[nH]c3ccccc23)cc1 (configuration not stated) | > 100
C=CCOc1ccc(C2(O)c3ccccc3C3=NCCCN32)cc1 (configuration not stated) | > 100
CCC/C(Cl)=N\OC(=O)Nc1ccc(OC(F)(F)F)cc1 | 39.8
C[N+]12CCCCC1C(CN1C(=O)Cc3c4ccccc4c(c4ccccc34)CC1=O)CCC2 (configuration not stated) | > 100
CC(=O)O[C@H]1CC[C@@]2(C)C(=CC[C@H]3[C@@H]4C[C@H](N5CCOCC5)[C@H](OC(C)=O)[C@@]4(C)CC[C@@H]32)C1 | > 100
CCC1(C)C=Cc2c(cc(O)c3c(=O)c4ccccc4n(C)c23)O1 (configuration not stated) | > 10
CC(C)(Cl)C(Br)CCC(=CCCl)CBr (mixture of isomers) | 5.31
Nc1[nH]nc2nc3ccc(C(F)(F)F)cc3nc12 | > 100
CCN1CCC(O)(/C=C/c2ccc(C)cc2C)C(C(=O)/C=C/c2ccc(C)cc2C)C1 (configuration not stated) | 7.99
O=[N+]([O-])/C(C(Cl)=C(Cl)Cl)=C(\N1CCCCC1)n1cncn1 | 36.7
S=C(Nc1ccc2c(c1)oc1ccccc12)c1cccnc1 | > 100
O=C1c2cccnc2-c2nccc3c2c1nc1cc(Br)ccc13 | 0.563
NC(CCC(=O)NC(CSCC1C(=O)Nc2ccccc21)C(=O)NCC(=O)O)C(=O)O (configuration not stated) | > 22.2
NNC(=O)CSc1nc2ccccc2c(=O)n1N | > 100
Cc1cc(S(=O)(=O)Nc2nc3cc(-c4ccc(Cl)cc4)sc3c(=O)n2N)c(S)cc1Cl | > 100
C=C([C@@]1(O)C[C@H]2[C@H](CCC2(OC)OC)[C@@H]2c3ccccc3O[C@@H]21)[Si](C)(C)C | > 100
COc1ccc2c(c1)CCN1CCc3ccccc3CC21 (configuration not stated) | > 100
CN1COCc2c1ccc1cc3ccc4c(c3nc21)COCN4S(C)(=O)=O | > 100
Oc1cccc(-c2nc3cc(F)ccc3s2)c1 | 52.3
